Patent publication US5407939A, “Fluorinated 17 β-substituted 4-aza-5 α-androstan-3-one derivatives” (Farmitalia Carlo Erba S.R.L., priority 1992, dated 1995)

Experiments:
5α-reductase [1] = test: In vivo inhibition of 5α-reductase (antiandrogenic effect, ventral prostate weight in castrated, testosterone-implanted rats); conditions: rat, once daily for 7 consecutive days
Description: The standard test for the antiandrogenic effect in rats was used. Prepuberal 22-day-old male rats were castrated via scrotal incision under light ether anaesthesia. […] Control animals (testosterone controls) received the vehicle (0.5 ml/kg of 0.5% Methocel/0.4% Tween 80). One group of castrated rats was not implanted with testosterone (castrated controls).
The mean percentage of inhibition of the T-induced hypertrophic response of the prostate was calculated according to the following formula: […]

5α-reductase [2] = target: T1, 5α-reductase (Homo sapiens, UniProt P31213); test: In vitro assay of 5α-reductase inhibition (particulate fraction from homogenates of hyperplastic human prostates, [14C] testosterone); type: biochemical; conditions: human prostate particulate fraction, pH 5.5, 1 μM [14C] testosterone, 30 min, 37° C.
T1 construct: particulate fraction from homogenates of hyperplastic human prostates; from tissue; host or cells: hyperplastic human prostate, particulate fraction (140,000×g pellet)
T1 sequence (P31213 1-254): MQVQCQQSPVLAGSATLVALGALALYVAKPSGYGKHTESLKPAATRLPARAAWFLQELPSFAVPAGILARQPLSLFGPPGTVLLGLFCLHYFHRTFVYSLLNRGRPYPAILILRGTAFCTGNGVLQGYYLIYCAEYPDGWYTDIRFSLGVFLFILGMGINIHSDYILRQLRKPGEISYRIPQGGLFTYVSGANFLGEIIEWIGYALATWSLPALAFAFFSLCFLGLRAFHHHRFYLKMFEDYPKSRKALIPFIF
Description: Inhibition of 5α-reductase was evaluated using the particulate fraction from homogenates of hyperplastic human prostates as the enzyme source. The particulate fraction was prepared centrifuging prostate homogenate at 140,000×g. The resulting pellet, washed several times, was resuspended in buffer and stored at -80° C. in aliquots containing ≈10 mg protein/mi.
The assay for 5α-reductase was done in a final volume of 0.5 ml, in 40 mM TRIS-HCl buffer pH 5.5, containing 1 mM dithiothreitol, 5 mM NADPH, 1 μM [^14 C] testosterone, an aliquot of the enzyme preparation and various of the inhibitors. After 30 min incubation at 37° C. the reaction was terminated by addition of 2 ml cold diethyl ether and the organic phase was separated, evaporated under N2 and resuspended in ethyl acetate. Testosterone metabolites in this extract were separated in TLC on silica gel F 254 plates (Merck), using chloroform, acetone and n-hexane (2:1:2) as developing solvent system.
Radioactivity on the plate was scanned and analyzed from quantitative plots printed by a TLC-analyzer (Berthold). The fractional 5α-reduction of testosterone was calculated by relating the ^14 C-radioactivity in the 5α-reduced metabolites (5α-dihydrotestosterone, 3α- and 3β-androstanediols) regions to the total radioactivity in the testosterone and 5α-reduced metabolites regions. […]

IC50 (5α-reductase [2]): 21 nM
Compound: C[C@]12C=CC(=O)N[C@@H]1CC[C@@H]1[C@@H]2CC[C@]2(C)[C@@H](C(=O)NC(c3ccccc3)C(F)(F)F)CC[C@@H]12 (stereo partly drawn) [Compound 40, N-(2,2,2-trifluorophenylethyl) 3-oxo-4-aza-5α-androst-1-ene-17β-carboxamide]
% INHIBITION OF PROSTATE WEIGHT AT 3 mg/kg/day p.o. (5α-reductase [1]): 51%
